# Test results as given in US11879137B2, “Treatment of type 1 diabetes and autoimmune diseases or disorders” (THE CHILDREN'S MEDICAL CENTER CORPORATION, priority 2017, dated 2024).
# Test system: CD34+ cells
# Assay: qRT-PCR of PD-L1, CXCR4 and IDO-1 in prostaglandin-modulated CD34+ cells
# Assay type: cell-based, human
# Details: for PD-L1 mRNA expression by RT-PCR: CD34+ cells upon modulation
# Description: qRT-PCR. RNA was extracted from CD34+ cells using Direct-Zol™ RNA Kits (Zymo, Irvine, CA, USA) and Trizol Reagent (Invitrogen Carlsbad, CA), RNA quality was assessed by Multiskan™ GO Microplate spectrophotometer and the ratios of absorbance at 260 nm and 280 nm were assessed for all the samples. Only samples with RNA ratios within 1.9 were included in the present study. cDNA synthesis was made from purified total RNA by reverse transcription using High capacity cDNA Reverse Transcription RETROscript® Kit (Thermo Fisher Scientific, Waltham, MA, USA) followed by a pre-amplification using Taqman PreAmp Kit (Applied Biosystems) according to the manufacturer's instructions. qRT-PCR analysis was performed using TaqMan assays (Life Technologies, Grand Island, NY) containing PCR primers and TaqMan probes according to the manufacturer's instructions. Normalized expression values were determined using the ΔCt method. Quantitative reverse transcriptase polymerase chain reaction (qRT-PCR) data were normalized for the expression of GAPDH. qRT-PCR reactions were performed in triplicate in a 96-well format using an Applied Biosystems 7900HT fast real-time PCR instrument. Relative expression was calculated using the comparative threshold cycle method as previously described (23, 24). For two-group comparisons, a Student's t test was employed. Reported below are the main characteristics of the primers used: […]
# Prostaglandin library screening. PGE2 has been described as a small molecule known to enhance the homing and engraftment of HSPCs. It was therefore sought to screen all known types of prostaglandins using the Prostaglandin Screening Library II, which contains 64 small molecules. Each small molecule contained in the library was first screened for its capacity to upregulate PD-L1 in human CD34+ cells isolated from T1D patients (FIG. 17A-17B). CD34+ cells isolated from T1D patients were cultured in StemSpan SFEMII and pulsed with each PG (prostaglandin) small molecule contained in the aforementioned library at a concentration of 10 μM at 24 and 48h. Using FACS analysis, the MFI (mean fluorescence intensity) of PD-L1 expression was calculated following treatment with each small molecule used to modulate CD34+ cells as compared to untreated/unmodulated CD34+ cells (FIG. 17B). A heat map was generated depicting the degree to which each PG small molecule affected PD-L1 expression on CD34+ cells (FIG. 17B), thus allowing for the evaluation of PG candidates. Based on its ability to modulate PD-L1 expression, PGE2 was selected as a candidate for further study; in addition, PGE2 has been described in the literature and has been tested in clinical trials as a potential therapy for enhancing HSPC engraftment following cord blood transplantation (21). Isolated CD34+ cells from healthy control patients (CTRL) and from T1D patients were cultured in StemSpan SFEMII and pulsed with 10 μM of PGE2 at 24 hours and 48 hours. […] It was therefore sought to perform a migration assay in order to assess the homing properties of PGE2-treated CD34+ cells (FIG. 17F).
SMILES,PD-L1 mRNA expression by RT-PCR,IDO-1 expression (mRNA) (post-pharmacologic modulation),increase of CXCR4 gene expression by RT-PCR (vs untreated CD34+ cells) [fold]
"CCCCC(C)(C)[C@H](O)/C=C/[C@H]1[C@H](O)CC(=O)[C@@H]1C/C=C\CCCC(=O)O [16,16-dimethyl PGE2]",marked upregulation,,
"CCCCC[C@H](O)/C=C/[C@H]1[C@H](O)CC(=O)[C@@H]1C/C=C\CCCC(=O)O [PGE2, prostaglandin E2]",slight increase,remained unchanged,2
